Experimental data as given in ChEMBL document CHEMBL3758169, “4-Aminoindazolyl-dihydrofuro[3,4-d]pyrimidines as non-covalent inhibitors of mutant epidermal growth factor receptor tyrosine kinase” (Bioorg Med Chem Lett, 2016).
≈ marks a conversion by molar mass, not a printed value. Blank lines part the entries; values can stand above or below the compound they belong to.

Key:
[1] = biological target: T1, Epidermal growth factor receptor (Homo sapiens, UniProt P00533, L858R/T790M); assay: Inhibition of EGFR T790M/L858R mutant (unknown origin); assay type: protein assay
T1 sequence (P00533 25-1210 T790M/L858R limits assumed): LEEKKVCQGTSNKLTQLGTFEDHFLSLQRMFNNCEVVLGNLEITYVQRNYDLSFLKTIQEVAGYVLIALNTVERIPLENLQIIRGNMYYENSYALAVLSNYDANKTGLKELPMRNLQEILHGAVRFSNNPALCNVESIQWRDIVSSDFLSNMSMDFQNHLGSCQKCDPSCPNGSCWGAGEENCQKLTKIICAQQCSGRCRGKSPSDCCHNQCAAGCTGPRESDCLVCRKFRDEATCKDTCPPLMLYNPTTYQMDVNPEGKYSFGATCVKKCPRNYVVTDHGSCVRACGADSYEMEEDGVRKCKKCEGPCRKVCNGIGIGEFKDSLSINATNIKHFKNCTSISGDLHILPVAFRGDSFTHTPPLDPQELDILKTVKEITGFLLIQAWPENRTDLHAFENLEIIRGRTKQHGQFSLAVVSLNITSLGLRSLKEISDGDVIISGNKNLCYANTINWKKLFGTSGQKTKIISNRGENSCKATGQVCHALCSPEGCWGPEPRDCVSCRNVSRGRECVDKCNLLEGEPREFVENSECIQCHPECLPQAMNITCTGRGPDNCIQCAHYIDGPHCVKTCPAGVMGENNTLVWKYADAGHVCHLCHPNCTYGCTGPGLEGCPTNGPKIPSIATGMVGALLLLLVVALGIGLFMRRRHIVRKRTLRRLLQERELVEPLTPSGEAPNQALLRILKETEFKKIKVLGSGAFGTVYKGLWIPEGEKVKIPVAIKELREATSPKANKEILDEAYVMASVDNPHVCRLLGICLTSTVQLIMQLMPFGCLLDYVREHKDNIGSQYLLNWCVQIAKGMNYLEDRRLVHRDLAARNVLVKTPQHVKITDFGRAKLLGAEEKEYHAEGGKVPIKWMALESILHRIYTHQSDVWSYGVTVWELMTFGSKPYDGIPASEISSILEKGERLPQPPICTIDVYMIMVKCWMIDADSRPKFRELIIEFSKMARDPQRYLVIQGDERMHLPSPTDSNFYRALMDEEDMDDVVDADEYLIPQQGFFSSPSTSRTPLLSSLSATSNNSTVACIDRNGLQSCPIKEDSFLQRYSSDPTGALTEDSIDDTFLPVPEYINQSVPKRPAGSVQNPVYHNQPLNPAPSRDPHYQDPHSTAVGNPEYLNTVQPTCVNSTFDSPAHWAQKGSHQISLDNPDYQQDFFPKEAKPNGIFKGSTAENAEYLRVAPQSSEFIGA

[2] = Total AUC in rat at 5 mg/kg, po; assay type: ADME, organism-based; set-up: dose 5 mg/kg, time AUCmax, route oral; conditions: in vivo
[3] = Kinetic solubility of compound; assay type: physicochemical; conditions: read-out: Kinetic_solubility
[4] = Volume of distribution at steady state in rat; assay type: ADME, organism-based; conditions: in vivo, read-out: Vdss
[5] = Oral bioavailability in rat at 5 mg/kg; assay type: ADME, organism-based; conditions: in vivo
[6] = test system: Hepatocyte; assay: Drug metabolism in rat hepatocytes assessed as glucuronidation; assay type: ADME, cell-based
[7] = Plasma clearance in iv dosed rat; assay type: ADME, organism-based
[8] = test system: Rattus norvegicus; assay: Unbound AUC in rat at 5 mg/kg, po; assay type: ADME, organism-based; conditions: in vivo
[9] = Efflux ratio of permeability from basolateral to apical side over apical to basolateral side in MDCK cells; assay type: ADME, cell-based, Canis lupus familiaris; conditions: dog
[10] = test system: Hepatocyte; assay: Drug metabolism in human hepatocytes assessed as glucuronidation; assay type: ADME, cell-based
[11] = Apparent permeability from the apical to basolateral side in MDCK cells; assay type: ADME, cell-based, Canis lupus familiaris; conditions: dog
[12] = biological target: T2, Epidermal growth factor receptor (Homo sapiens, UniProt P00533); assay: Inhibition of EGFR deletion (746 to 750 residues) mutant (unknown origin); assay type: protein assay
Target sequence in this assay (P00533 25-1210 limits assumed, stated change not applied): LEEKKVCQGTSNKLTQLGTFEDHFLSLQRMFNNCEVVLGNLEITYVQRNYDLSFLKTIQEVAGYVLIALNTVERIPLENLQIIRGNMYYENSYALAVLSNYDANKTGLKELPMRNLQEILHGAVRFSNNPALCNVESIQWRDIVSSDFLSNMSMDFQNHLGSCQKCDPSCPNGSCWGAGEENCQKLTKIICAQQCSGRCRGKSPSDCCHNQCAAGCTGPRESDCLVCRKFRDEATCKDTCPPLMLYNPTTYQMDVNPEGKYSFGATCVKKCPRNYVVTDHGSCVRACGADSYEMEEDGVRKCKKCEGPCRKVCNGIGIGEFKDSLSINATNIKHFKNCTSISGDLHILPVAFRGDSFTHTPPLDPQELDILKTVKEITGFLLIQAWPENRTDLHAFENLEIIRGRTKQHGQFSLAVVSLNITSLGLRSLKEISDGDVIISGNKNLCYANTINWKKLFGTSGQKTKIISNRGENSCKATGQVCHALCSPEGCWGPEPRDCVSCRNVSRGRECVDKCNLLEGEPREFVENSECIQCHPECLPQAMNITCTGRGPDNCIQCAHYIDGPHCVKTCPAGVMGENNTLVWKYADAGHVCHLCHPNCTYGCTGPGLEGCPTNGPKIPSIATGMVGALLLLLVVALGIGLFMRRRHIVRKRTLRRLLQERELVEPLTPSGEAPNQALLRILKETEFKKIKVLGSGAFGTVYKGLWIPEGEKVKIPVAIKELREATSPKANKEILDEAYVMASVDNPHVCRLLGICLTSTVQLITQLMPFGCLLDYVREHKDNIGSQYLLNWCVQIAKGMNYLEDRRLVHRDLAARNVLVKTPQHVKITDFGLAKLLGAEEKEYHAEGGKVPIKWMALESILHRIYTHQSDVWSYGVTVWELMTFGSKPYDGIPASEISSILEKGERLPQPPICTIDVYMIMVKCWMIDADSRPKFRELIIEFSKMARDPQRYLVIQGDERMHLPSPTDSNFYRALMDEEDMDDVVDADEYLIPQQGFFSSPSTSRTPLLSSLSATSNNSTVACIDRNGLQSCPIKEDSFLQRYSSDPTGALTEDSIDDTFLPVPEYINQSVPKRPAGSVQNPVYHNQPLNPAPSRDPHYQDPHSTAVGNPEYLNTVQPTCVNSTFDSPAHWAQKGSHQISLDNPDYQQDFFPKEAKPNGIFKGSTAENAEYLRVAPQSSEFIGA

[13] = biological target: T2, Epidermal growth factor receptor; assay: Inhibition of EGFR T790M/deletion (746 to 750 residues) mutant (unknown origin); assay type: protein assay
Target sequence in this assay (P00533 25-1210 limits assumed, stated change not applied): as above

[14] = biological target: T2, Epidermal growth factor receptor; assay: Inhibition of wild type EGFR (unknown origin)
Target sequence in this assay (P00533 whole entry, the tested form may be a part): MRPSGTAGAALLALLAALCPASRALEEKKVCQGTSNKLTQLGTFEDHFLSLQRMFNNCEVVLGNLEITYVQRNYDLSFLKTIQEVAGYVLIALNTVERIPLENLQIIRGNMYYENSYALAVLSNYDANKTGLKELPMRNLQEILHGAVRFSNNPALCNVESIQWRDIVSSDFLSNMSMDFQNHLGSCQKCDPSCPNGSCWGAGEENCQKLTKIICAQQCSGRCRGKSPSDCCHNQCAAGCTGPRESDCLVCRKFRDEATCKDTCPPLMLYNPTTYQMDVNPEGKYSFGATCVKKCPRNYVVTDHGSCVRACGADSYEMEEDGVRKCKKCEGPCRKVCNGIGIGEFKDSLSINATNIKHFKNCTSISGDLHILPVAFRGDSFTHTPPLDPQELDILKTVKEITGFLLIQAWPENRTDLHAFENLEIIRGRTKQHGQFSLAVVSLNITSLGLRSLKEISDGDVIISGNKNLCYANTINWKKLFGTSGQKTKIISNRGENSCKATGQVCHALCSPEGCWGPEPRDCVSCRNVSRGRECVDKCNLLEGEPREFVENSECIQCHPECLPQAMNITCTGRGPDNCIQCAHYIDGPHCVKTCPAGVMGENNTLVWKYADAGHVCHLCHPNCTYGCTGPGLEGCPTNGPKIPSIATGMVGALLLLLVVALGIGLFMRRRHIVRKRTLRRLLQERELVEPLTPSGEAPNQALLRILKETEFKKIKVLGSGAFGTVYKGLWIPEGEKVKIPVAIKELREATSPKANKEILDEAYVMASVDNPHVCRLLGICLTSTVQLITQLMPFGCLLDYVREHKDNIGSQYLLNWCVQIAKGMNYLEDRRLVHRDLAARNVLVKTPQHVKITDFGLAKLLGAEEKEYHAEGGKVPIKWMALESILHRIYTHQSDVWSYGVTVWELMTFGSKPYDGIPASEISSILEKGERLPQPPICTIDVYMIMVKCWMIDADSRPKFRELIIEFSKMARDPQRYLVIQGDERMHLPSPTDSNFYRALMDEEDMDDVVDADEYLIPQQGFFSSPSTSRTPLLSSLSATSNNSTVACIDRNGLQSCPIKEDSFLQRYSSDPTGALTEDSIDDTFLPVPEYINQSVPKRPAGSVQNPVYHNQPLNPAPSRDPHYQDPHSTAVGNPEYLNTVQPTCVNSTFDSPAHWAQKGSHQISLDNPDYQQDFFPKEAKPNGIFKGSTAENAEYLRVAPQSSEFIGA

[15] = biological target: Epidermal growth factor receptor (Homo sapiens, UniProt P00533, L858R); assay: Inhibition of EGFR L858R mutant (unknown origin); assay type: protein assay
Sequence of Epidermal growth factor receptor (Homo sapiens, UniProt P00533, L858R) (P00533 25-1210 L858R limits assumed): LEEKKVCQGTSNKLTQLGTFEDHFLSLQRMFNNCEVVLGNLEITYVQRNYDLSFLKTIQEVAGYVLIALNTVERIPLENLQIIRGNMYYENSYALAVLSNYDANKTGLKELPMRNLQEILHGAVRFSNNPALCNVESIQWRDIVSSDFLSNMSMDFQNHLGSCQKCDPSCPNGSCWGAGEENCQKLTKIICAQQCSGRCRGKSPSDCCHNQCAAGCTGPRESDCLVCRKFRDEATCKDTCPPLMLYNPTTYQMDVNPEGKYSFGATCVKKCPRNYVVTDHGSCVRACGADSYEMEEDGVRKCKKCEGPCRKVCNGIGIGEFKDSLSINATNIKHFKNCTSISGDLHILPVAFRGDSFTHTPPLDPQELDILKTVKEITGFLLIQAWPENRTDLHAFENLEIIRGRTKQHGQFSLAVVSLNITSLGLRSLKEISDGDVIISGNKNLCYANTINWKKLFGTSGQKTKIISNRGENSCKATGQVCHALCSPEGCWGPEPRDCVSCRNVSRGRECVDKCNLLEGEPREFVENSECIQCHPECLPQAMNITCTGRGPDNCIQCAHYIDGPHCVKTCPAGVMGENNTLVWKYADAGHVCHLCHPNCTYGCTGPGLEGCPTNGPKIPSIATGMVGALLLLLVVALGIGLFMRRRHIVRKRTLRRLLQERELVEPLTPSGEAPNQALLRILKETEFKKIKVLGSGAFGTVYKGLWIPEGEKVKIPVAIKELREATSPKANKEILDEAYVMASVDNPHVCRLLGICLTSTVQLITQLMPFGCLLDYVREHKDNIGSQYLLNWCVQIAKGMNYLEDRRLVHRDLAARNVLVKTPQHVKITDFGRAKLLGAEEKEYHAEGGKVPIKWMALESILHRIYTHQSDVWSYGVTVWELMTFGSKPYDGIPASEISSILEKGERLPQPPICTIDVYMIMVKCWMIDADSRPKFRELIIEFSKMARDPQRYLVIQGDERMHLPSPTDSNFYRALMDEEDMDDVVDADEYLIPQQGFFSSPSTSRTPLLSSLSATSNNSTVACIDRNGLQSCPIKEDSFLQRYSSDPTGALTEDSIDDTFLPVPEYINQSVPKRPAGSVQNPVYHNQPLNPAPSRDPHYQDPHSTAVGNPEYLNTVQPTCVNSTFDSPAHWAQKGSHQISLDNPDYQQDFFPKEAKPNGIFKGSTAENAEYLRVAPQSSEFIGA

[16] = biological target: T1, Epidermal growth factor receptor; assay: Inhibition of EGFR T790M/L858R mutant autophosphorylation in human H1975 cells; assay type: cell-based
[17] = Drug excretion in iv dosed rat bile assessed as glucuronide metabolite; assay type: ADME, organism-based; conditions: in vivo
[18] = biological target: High affinity nerve growth factor receptor (Homo sapiens) (UniProt P04629); assay: Inhibition of TRKA (unknown origin) at 1000 nM
[19] = biological target: Serine/threonine-protein kinase Chk1 (Homo sapiens) (UniProt O14757); assay: Inhibition of CHK1 (unknown origin) at 1000 nM
[20] = biological target: CDK2/Cyclin A2 (Homo sapiens) (UniProt P24941+P20248); assay: Inhibition of CDK2/cyclinA (unknown origin) at 1000 nM; assay type: protein-complex assay
[21] = biological target: Mitogen-activated protein kinase 1 (Homo sapiens) (UniProt P28482); assay: Inhibition of ERK2 (unknown origin) at 1000 nM
[22] = biological target: Tyrosine-protein kinase Lck (Homo sapiens) (UniProt P06239); assay: Inhibition of LCK (unknown origin) at 1000 Nm
[23] = biological target: Tyrosine-protein kinase JAK2 (Homo sapiens) (UniProt O60674); assay: Inhibition of JAK2 (unknown origin) at 1000 nM
[24] = biological target: Receptor tyrosine-protein kinase erbB-2 (Homo sapiens) (UniProt P04626); assay: Inhibition of ERBB2 (unknown origin) at 1000 nM
[25] = biological target: Vascular endothelial growth factor receptor 2 (Homo sapiens) (UniProt P35968); assay: Inhibition of KDR (unknown origin) at 1000 nM
[26] = biological target: Receptor-type tyrosine-protein kinase FLT3 (Homo sapiens) (UniProt P36888); assay: Inhibition of FLT3 (unknown origin) at 1000 nM
[27] = Drug excretion in iv dosed rat bile assessed as oxidative metabolite; assay type: ADME, organism-based; conditions: in vivo
[28] = biological target: Dual specificity mitogen-activated protein kinase kinase 1 (Homo sapiens) (UniProt Q02750); assay: Inhibition of MEK1 (unknown origin) at 1000 nM
[29] = biological target: Ribosomal protein S6 kinase beta-1 (Homo sapiens) (UniProt P23443); assay: Inhibition of p70S6K(unknown origin) at 1000 nM
[30] = Drug excretion in iv dosed rat urine assessed as glucuronide metabolite; assay type: ADME, organism-based; conditions: in vivo
[31] = test system: Epidermal growth factor receptor (Homo sapiens), P00533 [L858R,T790M]; assay: Inhibition of EGFR T790M/L858R double mutant (unknown origin) at 1000 nM; assay type: protein assay
[32] = test system: RAF proto-oncogene serine/threonine-protein kinase (Homo sapiens), P04049 [Y340D,Y341D]; assay: Inhibition of RAF1 Y340D/Y341D double mutant (unknown origin) at 1000 nM
[33] = Drug excretion in iv dosed rat urine assessed as oxidative metabolite; assay type: ADME, organism-based; conditions: in vivo
[34] = biological target: Aurora kinase B (Homo sapiens) (UniProt Q96GD4); assay: Inhibition of Aurora B (unknown origin) at 1000 nM
[35] = biological target: T3, Inhibitor of nuclear factor kappa-B kinase subunit epsilon (Homo sapiens) (UniProt Q14164); assay: Inhibition of IKKepsilon (unknown origin) at 1000 nM
T3 sequence (whole entry): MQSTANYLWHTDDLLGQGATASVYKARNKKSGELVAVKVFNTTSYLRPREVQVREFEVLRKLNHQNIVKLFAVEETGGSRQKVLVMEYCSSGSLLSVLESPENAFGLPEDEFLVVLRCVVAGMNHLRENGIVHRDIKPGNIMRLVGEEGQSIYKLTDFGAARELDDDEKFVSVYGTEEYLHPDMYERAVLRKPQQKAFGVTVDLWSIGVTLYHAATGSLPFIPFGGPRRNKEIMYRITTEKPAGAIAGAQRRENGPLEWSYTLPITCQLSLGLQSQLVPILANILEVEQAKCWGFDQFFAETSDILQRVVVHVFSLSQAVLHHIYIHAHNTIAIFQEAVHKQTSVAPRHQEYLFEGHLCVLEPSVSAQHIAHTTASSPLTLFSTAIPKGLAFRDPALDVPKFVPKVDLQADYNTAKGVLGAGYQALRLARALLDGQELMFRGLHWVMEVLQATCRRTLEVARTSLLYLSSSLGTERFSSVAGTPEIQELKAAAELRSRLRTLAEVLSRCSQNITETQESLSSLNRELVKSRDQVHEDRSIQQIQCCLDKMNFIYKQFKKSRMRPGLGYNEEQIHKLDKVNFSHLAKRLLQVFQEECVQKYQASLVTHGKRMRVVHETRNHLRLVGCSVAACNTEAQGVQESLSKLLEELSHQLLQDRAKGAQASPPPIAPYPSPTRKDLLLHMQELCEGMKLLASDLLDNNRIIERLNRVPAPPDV

[36] = biological target: Proto-oncogene tyrosine-protein kinase Src (Homo sapiens) (UniProt P12931); assay: Inhibition of SRC (unknown origin) at 1000 nM
[37] = biological target: Receptor tyrosine-protein kinase erbB-4 (Homo sapiens) (UniProt Q15303); assay: Inhibition of ERBB4 (unknown origin) at 1000 nM

SMILES: CC1(C)OCc2c(Nc3n[nH]c4cccc(F)c34)nc(-c3cn[nH]c3)nc21
Ki [1]: 17 nM

SMILES: Cn1nccc1-c1nc(Nc2n[nH]c3ccccc23)c2c(n1)C(C)(C)OC2
AUC [2]: 7.5 µM·h | Vd [4]: 2.3 L/kg | bioavailability [5]: 117% | clearance [7]: 38 mL/min/kg | Ki [1]: 34.3 nM | Ki [12]: < 0.5 nM | fAUC [8]: 0.23 µM·h | Ki [13]: 21.3 nM | efflux ratio [9]: 0.9 | Ki [14]: 1.1 nM | Ki [15]: < 0.5 nM | IC50 [16]: 3000 nM | Papp A→B [11]: 12.9 ×10⁻⁶ cm/s

SMILES: CC1(C)OCc2c(Nc3n[nH]c4ccc(F)cc34)nc(-c3cn[nH]c3)nc21
Vd [4]: 6.8 L/kg | Drug metabolism [6]: metabolite_detected | clearance [7]: 81 mL/min/kg | Ki [1]: 8 nM | Drug metabolism [10]: metabolite_detected

SMILES: CC1(C)OCc2c(Oc3n[nH]c4ccccc34)nc(-c3cn[nH]c3)nc21
Ki [1]: 85 nM

SMILES: CC1(C)OCc2c(Nc3n[nH]c(Cl)c3Cl)nc(-c3cn[nH]c3)nc21
Ki [1]: 389 nM

SMILES: CC1(C)OCc2c(Nc3n[nH]c4cc(F)ccc34)nc(-c3cn[nH]c3)nc21
Ki [1]: 2 nM

SMILES: CC1(C)OCc2c(Nc3n[nH]c4ccccc34)nc(-c3cscn3)nc21
Ki [1]: 5.6 nM

SMILES: CC1(C)OCc2c(Nc3n[nH]c4cc(C(F)(F)F)ccc34)nc(-c3cn[nH]c3)nc21
Vd [4]: 1.2 L/kg | clearance [7]: 91 mL/min/kg | Ki [1]: > 2000 nM | efflux ratio [9]: 1.5 | Papp A→B [11]: 10.3 ×10⁻⁶ cm/s

SMILES: CC1(C)OCc2c(Nc3nc4ccccc4s3)nc(-c3cn[nH]c3)nc21
Ki [1]: > 2000 nM

SMILES: CC1(C)OCc2c(Nc3n[nH]c4c(Cl)cccc34)nc(-c3cn[nH]c3C(F)F)nc21
Drug excretion [17]: metabolite_detected | AUC [2]: 3.4 µM·h | inhibition [18]: 15.3% | inhibition [19]: 6.9% | solubility kinetic [3]: 3 µM (≈ 1.3 µg/mL) | Vd [4]: 3.3 L/kg | inhibition [20]: -4% | inhibition [21]: 4.5% | inhibition [22]: 85.7% | bioavailability [5]: 62% | inhibition [23]: 10.1% | inhibition [24]: 91.8% | inhibition [25]: 96.4% | inhibition [26]: 38.1% | Drug excretion [27]: metabolite_detected | inhibition [28]: -4.5% | clearance [7]: 36 mL/min/kg | Ki [1]: 9 nM | Ki [12]: 1.7 nM | inhibition [29]: 2.7% | Drug excretion [30]: metabolite_detected | fAUC [8]: 0.09 µM·h | inhibition [31]: 90.8% | Ki [13]: 2.5 nM | efflux ratio [9]: 0.7 | Ki [14]: 6.5 nM | inhibition [32]: 38.4% | Drug excretion [33]: metabolite_detected | inhibition [34]: -7% | Ki [15]: 3.4 nM | inhibition [35]: 1.9% | inhibition [36]: 47.6% | IC50 [16]: 370 nM | Papp A→B [11]: 8.4 ×10⁻⁶ cm/s | inhibition [37]: 97%

SMILES: Cn1nc(Nc2nc(-c3cn[nH]c3)nc3c2COC3(C)C)c2cccc(F)c21
Vd [4]: 1.5 L/kg | clearance [7]: 60 mL/min/kg | Ki [1]: 57 nM

SMILES: CC1(C)OCc2c(Nc3n[nH]c4c3CCCC4)nc(-c3cn[nH]c3)nc21
Ki [1]: > 2000 nM

Results, then the compound that gave them:

Ki [1]: 16 nM
SMILES: CC1(C)OCc2c(Nc3n[nH]c4c(Cl)cc(F)cc34)nc(-c3cn[nH]c3)nc21

Ki [1]: 17 nM
SMILES: CC1(C)OCc2c(Nc3c[nH]c4ccccc34)nc(-c3cn[nH]c3)nc21

Ki [1]: 175 nM
SMILES: CC1(C)OCc2c(Nc3n[nH]c4ccccc34)nc(-c3cc[nH]n3)nc21

AUC [2]: 0.36 µM·h | solubility kinetic [3]: 3 µM (≈ 1.25 µg/mL) | Vd [4]: 2.4 L/kg | bioavailability [5]: 5% | Drug metabolism [6]: metabolite_detected | clearance [7]: 27 mL/min/kg | Ki [1]: 134 nM | fAUC [8]: 0.03 µM·h | efflux ratio [9]: 1.3 | Drug metabolism [10]: metabolite_detected | Papp A→B [11]: 8.5 ×10⁻⁶ cm/s
SMILES: CC1(C)OCc2c(Nc3n[nH]c4c(C(F)(F)F)cccc34)nc(-c3cn[nH]c3)nc21

Ki [1]: > 2000 nM
SMILES: CC1(C)OCc2c(Nc3n[nH]c4ccncc34)nc(-c3cn[nH]c3)nc21

Ki [1]: 844 nM
SMILES: Cc1cc(Nc2nc(-c3cn[nH]c3)nc3c2COC3(C)C)n[nH]1

Ki [1]: 519 nM
SMILES: CN(c1nc(-c2cn[nH]c2)nc2c1COC2(C)C)c1n[nH]c2ccccc12

Ki [1]: 104 nM
SMILES: CC1(C)OCc2c(C(=O)c3n[nH]c4ccccc34)nc(-c3cn[nH]c3)nc21

Ki [1]: 3 nM
SMILES: CC1(C)OCc2c(Nc3n[nH]c4c(F)cccc34)nc(-c3cn[nH]c3)nc21

Vd [4]: 5.5 L/kg | clearance [7]: 60 mL/min/kg | Ki [1]: 4 nM | efflux ratio [9]: 1.1 | Papp A→B [11]: 7.3 ×10⁻⁶ cm/s
SMILES: CC1(C)OCc2c(Nc3n[nH]c4c(Cl)c(F)ccc34)nc(-c3cn[nH]c3)nc21

Ki [1]: 732 nM
SMILES: CC1(C)OCc2c(Nc3n[nH]c4ccccc34)nc(-c3c[nH]nn3)nc21

Ki [1]: 10.4 nM
SMILES: CC1(C)OCc2c(Nc3n[nH]c4c(F)cc(F)cc34)nc(-c3cn[nH]c3)nc21

Ki [1]: 22.4 nM
SMILES: CC1(C)OCc2c(Nc3n[nH]c4cc(Cl)ccc34)nc(-c3cn[nH]c3)nc21

Ki [1]: 747 nM
SMILES: CC1(C)OCc2c(Nc3nsc4ccccc34)nc(-c3cn[nH]c3)nc21
